Data published in PMC6407917, “Identification of GSK3186899/DDD853651 as a Preclinical Development Candidate for the Treatment of Visceral Leishmaniasis” (Journal of Medicinal Chemistry, 2018).

Columns and labels:
Assay in all cases: biochemical
Parameters in all cases: species or system HEK293/K-562/placenta mixed human extract; Kinobeads chemoproteomic competition binding, quantified by TMT LC-MS/MS, dose response up to 20 uM
ADCK1 = ADCK1 (Homo sapiens, UniProt Q86TW2)
AKT2 = AKT2 (Homo sapiens, UniProt P31751)
CAMK2D = CAMK2D (Homo sapiens, UniProt Q13557)
CHEK1 = CHEK1 (Homo sapiens, UniProt O14757)
Sequence of CHEK1 (O14757 whole entry): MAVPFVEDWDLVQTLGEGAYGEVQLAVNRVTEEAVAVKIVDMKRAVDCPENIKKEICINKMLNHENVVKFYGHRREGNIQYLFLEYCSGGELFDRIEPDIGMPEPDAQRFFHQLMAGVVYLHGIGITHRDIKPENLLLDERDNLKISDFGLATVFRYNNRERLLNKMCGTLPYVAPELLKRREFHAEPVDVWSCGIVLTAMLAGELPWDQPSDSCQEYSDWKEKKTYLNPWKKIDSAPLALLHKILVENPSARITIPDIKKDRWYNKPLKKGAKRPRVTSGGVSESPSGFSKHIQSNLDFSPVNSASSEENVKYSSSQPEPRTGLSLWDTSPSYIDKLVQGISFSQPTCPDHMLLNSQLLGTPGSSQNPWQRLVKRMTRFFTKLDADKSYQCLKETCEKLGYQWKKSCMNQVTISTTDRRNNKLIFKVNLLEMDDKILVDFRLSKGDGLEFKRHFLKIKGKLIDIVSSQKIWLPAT

EPHB4 = EPHB4 (Homo sapiens, UniProt P54760)
Sequence of EPHB4 (P54760 whole entry): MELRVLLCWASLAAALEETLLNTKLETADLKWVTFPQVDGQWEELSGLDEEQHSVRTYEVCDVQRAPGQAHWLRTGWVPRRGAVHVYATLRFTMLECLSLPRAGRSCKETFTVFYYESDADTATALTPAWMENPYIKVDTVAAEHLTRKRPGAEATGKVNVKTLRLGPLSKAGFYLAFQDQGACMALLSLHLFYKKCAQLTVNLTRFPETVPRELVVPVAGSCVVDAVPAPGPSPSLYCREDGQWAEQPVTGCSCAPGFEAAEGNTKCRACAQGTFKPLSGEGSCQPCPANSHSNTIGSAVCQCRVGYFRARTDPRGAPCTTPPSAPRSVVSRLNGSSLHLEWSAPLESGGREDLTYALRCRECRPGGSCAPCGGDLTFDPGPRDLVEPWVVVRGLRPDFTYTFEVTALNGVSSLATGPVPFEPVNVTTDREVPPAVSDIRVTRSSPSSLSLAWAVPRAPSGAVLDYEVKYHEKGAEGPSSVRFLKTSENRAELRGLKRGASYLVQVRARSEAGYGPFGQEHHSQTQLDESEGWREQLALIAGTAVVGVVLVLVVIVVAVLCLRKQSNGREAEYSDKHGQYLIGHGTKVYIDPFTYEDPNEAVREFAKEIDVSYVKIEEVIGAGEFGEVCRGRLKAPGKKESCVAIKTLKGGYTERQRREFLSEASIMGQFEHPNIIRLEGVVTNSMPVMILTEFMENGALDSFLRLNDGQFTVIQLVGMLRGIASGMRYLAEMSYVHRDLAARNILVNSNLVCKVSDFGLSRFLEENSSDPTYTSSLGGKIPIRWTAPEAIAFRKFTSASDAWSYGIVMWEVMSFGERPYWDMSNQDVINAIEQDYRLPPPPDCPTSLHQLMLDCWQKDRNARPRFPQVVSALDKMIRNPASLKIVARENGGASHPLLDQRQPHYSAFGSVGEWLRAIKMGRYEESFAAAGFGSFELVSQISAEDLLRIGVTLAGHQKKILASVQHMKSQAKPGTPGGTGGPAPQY

MAP3K7 = MAP3K7 (Homo sapiens, UniProt O43318)
MAPK1 = MAPK1 (Homo sapiens, UniProt P28482)
Sequence of MAPK1 (P28482 whole entry): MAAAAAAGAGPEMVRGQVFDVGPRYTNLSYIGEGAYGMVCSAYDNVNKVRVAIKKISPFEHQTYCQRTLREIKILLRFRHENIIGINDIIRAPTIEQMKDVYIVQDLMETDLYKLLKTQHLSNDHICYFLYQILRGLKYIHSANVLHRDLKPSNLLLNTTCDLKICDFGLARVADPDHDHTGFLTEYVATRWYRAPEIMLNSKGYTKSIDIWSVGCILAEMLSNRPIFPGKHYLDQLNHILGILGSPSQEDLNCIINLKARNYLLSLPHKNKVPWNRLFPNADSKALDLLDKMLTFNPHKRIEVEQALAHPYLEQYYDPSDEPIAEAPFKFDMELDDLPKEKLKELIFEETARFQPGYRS

MAPK3 = MAPK3 (Homo sapiens, UniProt P27361)
Sequence of MAPK3 (P27361 whole entry): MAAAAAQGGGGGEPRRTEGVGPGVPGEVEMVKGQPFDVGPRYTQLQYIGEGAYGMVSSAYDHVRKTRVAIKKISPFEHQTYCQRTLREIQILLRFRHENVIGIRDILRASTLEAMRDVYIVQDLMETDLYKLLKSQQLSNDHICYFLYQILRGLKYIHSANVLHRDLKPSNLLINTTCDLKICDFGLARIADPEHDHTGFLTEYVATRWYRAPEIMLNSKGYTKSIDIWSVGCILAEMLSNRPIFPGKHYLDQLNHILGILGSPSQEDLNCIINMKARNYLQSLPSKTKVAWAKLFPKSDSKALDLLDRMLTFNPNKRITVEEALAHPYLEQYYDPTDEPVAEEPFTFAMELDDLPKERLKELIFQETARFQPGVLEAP

NEK3 = NEK3 (Homo sapiens, UniProt P51956)
Sequence of NEK3 (P51956 whole entry): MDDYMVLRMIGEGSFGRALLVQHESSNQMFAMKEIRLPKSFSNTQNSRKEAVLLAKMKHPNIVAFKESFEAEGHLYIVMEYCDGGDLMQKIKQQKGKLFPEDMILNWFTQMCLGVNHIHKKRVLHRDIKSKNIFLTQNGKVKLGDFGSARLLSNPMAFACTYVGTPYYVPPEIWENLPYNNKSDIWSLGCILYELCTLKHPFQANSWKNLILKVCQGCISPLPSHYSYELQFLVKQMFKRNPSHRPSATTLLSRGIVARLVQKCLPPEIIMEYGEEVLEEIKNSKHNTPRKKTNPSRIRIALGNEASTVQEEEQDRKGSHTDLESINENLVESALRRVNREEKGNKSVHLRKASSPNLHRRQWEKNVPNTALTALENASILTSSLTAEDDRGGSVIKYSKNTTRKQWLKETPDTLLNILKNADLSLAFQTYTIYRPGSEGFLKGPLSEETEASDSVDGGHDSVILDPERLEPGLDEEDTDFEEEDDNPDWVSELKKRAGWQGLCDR

NEK6 = NEK6 (Homo sapiens, UniProt Q9HC98)
PHKA2 = PHKA2 (Homo sapiens, UniProt P46019)
PIM2 = PIM2 (Homo sapiens, UniProt Q9P1W9)
Sequence of PIM2 (Q9P1W9 whole entry): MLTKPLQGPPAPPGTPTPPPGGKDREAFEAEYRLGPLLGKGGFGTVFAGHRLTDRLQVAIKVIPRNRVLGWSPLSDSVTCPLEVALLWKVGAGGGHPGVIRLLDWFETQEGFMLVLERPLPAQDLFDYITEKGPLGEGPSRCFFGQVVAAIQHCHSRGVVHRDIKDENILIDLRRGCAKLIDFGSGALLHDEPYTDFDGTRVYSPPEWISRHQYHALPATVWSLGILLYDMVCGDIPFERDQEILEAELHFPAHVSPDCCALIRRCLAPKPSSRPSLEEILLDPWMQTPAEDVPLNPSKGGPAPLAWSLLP

PRKAA1 = PRKAA1 (Homo sapiens, UniProt Q13131)
PRKAA2 = PRKAA2 (Homo sapiens, UniProt P54646)
PRKAB1 = PRKAB1 (Homo sapiens, UniProt Q9Y478)
Sequence of PRKAB1 (Q9Y478 whole entry): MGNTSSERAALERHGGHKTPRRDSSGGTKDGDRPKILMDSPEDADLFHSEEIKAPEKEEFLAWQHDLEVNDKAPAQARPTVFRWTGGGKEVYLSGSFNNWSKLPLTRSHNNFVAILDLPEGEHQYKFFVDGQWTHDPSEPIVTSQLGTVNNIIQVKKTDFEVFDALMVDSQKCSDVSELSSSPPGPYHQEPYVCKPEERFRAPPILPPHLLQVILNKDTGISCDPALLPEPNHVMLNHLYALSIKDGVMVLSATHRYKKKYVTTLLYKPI

PRKAB2 = PRKAB2 (Homo sapiens, UniProt O43741)
Sequence of PRKAB2 (O43741 whole entry): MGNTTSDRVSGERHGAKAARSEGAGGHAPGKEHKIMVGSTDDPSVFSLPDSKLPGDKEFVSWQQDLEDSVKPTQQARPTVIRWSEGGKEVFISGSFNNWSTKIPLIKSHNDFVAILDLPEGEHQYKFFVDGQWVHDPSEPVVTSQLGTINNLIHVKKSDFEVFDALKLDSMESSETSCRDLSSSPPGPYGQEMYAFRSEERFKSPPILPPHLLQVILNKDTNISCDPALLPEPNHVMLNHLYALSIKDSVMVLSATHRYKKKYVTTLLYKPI

RPS6KA5 = RPS6KA5 (Homo sapiens, UniProt O75582)
STK39 = STK39 (Homo sapiens, UniProt Q9UEW8)
TEC = TEC (Homo sapiens, UniProt P42680)
TEK = TEK (Homo sapiens, UniProt Q02763)
TNK1 = TNK1 (Homo sapiens, UniProt Q13470)
Sequence of TNK1 (Q13470 whole entry): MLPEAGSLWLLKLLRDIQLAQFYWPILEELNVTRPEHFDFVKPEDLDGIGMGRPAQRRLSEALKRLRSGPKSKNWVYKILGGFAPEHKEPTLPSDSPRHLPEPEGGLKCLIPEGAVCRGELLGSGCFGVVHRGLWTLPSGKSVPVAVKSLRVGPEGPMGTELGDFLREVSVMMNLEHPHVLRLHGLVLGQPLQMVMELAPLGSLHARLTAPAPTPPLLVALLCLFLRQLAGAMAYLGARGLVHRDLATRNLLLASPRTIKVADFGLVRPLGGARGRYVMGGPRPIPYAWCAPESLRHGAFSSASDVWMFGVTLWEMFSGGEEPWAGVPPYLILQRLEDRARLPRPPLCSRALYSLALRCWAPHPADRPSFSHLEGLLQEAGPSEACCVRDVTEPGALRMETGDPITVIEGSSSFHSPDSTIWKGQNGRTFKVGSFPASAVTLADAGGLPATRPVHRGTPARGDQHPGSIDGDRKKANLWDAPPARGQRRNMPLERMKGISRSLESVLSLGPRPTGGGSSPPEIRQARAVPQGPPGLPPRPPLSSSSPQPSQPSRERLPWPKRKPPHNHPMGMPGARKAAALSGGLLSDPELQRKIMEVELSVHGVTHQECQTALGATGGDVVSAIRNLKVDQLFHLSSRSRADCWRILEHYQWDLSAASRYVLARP

Sequence of ADCK1 (Q86TW2 whole entry): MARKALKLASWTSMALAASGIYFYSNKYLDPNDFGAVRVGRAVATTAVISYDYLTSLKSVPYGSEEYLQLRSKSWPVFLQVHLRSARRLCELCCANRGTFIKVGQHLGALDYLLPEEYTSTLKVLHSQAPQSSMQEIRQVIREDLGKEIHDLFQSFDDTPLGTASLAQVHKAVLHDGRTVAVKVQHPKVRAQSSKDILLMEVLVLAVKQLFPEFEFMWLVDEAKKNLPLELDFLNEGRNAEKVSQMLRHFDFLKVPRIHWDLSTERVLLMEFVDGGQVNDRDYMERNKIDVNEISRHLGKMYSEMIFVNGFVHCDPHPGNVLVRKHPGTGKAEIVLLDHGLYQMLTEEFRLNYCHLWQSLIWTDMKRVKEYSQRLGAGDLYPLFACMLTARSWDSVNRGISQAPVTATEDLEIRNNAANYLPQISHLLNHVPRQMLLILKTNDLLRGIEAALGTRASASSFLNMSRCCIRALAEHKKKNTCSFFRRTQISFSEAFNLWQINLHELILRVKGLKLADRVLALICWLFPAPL

IC50 (ADCK1): ≥ 20 µM | IC50 (AKT2): ≥ 20 µM | IC50 (CAMK2D): ≥ 20 µM | IC50 (CHEK1): ≥ 20 µM | IC50 (EPHB4): ≥ 20 µM | IC50 (MAP3K7): ≥ 20 µM | IC50 (MAPK1): ≥ 20 µM | IC50 (MAPK3): ≥ 20 µM | IC50 (NEK3): ≥ 20 µM | IC50 (NEK6): ≥ 20 µM | IC50 (PHKA2): ≥ 20 µM | IC50 (PIM2): ≥ 20 µM | IC50 (PRKAA1): ≥ 20 µM | IC50 (PRKAA2): ≥ 20 µM | IC50 (PRKAB1): ≥ 20 µM | IC50 (PRKAB2): ≥ 20 µM | IC50 (RPS6KA5): ≥ 20 µM | IC50 (STK39): ≥ 20 µM | IC50 (TEC): ≥ 20 µM | IC50 (TEK): ≥ 20 µM | IC50 (TNK1): ≥ 20 µM
SMILES: COc1ccccc1-c1n[nH]c2nc(N[C@H]3CC[C@H](NS(=O)(=O)CCC(F)(F)F)CC3)nc(OC)c12 [compound 31, 3,3,3-Trifluoro-N-(trans-4-((4-methoxy-3-(2-methoxyphenyl)-1H-pyrazolo[3,4-d]pyrimidin-6-yl)amino)cyclohexyl)propane-1-sulfonamide]
